Data reported in US8530490B2, “Uracil compound or salt thereof having human deoxyuridine triphosphatase inhibitory activity” (Taiho Pharmaceutical Co., Ltd., priority 2008, dated 2013).
pIC50: −log10 of the molar value.

Each molecule was assayed against human dUTPase (Homo sapiens (Human), UniProt P33316) (assay: Human dUTPase inhibitory effect: production of [5-3H]dUMP from [5-3H]dUTP, measured by HPLC with flow scintillation). Conditions: [5-3H]dUMP production from [5-3H]dUTP, 37° C., 15 minutes.
Format: biochemical
Procedure: The inhibitory activity of the compound of the present invention against human dUTPase was determined by measuring the production of [5-^3H]deoxyuridine monophosphate (hereinafter, referred to as [5-^3H]dUMP) from [5-^3H]deoxyuridine triphosphate (hereinafter, referred to as [5-^3H]dUTP) according to a method shown below.
Specifically, 0.2 mL in total of a solution containing 0.02 mL of 1 μM dUTP (including 588 Bq/mL [5-3H]dUTP), 0.05 mL of a 0.2 M Tris buffer solution (pH 7.4), 0.05 mL of 16 mM magnesium chloride, 0.02 mL of 20 mM 2-mercaptoethanol, 0.02 mL of a 1% aqueous solution of fetal bovine serum-derived albumin, 0.02 mL of varying concentrations of test compound solutions or pure water as a control, and 0.02 mL of a solution of human dUTPase (expressed using E. coli and purified) was reacted at 37° C. for 15 minutes. Immediately after the reaction, the solution was heated at 100° C. for 1 minute to terminate the reaction, followed by centrifugation at 15000 rpm for 2 minutes. An aliquot (150 μL) of the supernatant thus obtained by centrifugation was analyzed using an Atlantis dC18 column (manufactured by Waters Corp., 4.6×250 mm) and a high-performance liquid chromatograph (manufactured by Shimadzu Corp., Prominence). Elution was performed at a flow rate of 0.8 mL/min for 30 minutes by a concentration gradient from a 4:6 mixed solution of a mobile phase A (10 mM potassium dihydrogen phosphate (pH 6.7), 10 mM tetrabutylammonium, and 0.25% methanol) and a mobile phase B (50 mM potassium dihydrogen phosphate (pH 6.7), 5.6 mM tetrabutylammonium, and 30% methanol) to the mobile phase B. The eluate was mixed with a scintillator (manufactured by PerkinElmer Co., Ltd., Ultima-Flo AP) at a 1:2 ratio, and the radioactivity of the produced [5-^3H]dUMP (RT 10.2 min) was measured using Radiomatic Flow Scintillation Analyzer (manufactured by PerkinElmer Co., Ltd., 525TR).
The inhibitory activity of the test compound was determined according to the formula shown below.

Sequence of human dUTPase (P33316 94-252): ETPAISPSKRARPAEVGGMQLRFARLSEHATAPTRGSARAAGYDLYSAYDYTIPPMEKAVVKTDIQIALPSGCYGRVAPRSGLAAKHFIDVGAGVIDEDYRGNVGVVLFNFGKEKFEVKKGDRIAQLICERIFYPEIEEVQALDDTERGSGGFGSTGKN

| SMILES | pIC50 |
| --- | --- |
| CC[C@@H](NS(=O)(=O)CCCOCn1ccc(=O)[nH]c1=O)c1cccc(OCC2CC2)c1 [Example 27, (R)—N-(1-(3-(cyclopropylmethoxy)phenyl)propyl)-3-((2,4-dioxo-3,4-dihydropyrimidin-1(2H)-yl)methoxy)propane-1-sulfonamide] | 7.40 |
| CC(C)(NS(=O)(=O)CCCOCn1ccc(=O)[nH]c1=O)c1ccc(F)c(OCC2CC2)c1 [Example 28, N-(2-(3-(cyclopropylmethoxy)-4-fluorophenyl)propan-2-yl)-3-((2,4-dioxo-3,4-dihydropyrimidin-1(2H)-yl)methoxy)propane-1-sulfonamide] | 6.44 |
| O=c1ccn(COCCCS(=O)(=O)NC(c2ccccc2)c2cccc(OCC3CCC3)c2)c(=O)[nH]1 (stereo not drawn) [Example 29, N-((3-(cyclobutylmethoxy)phenyl)(phenyl)methyl)-3-((2,4-dioxo-3,4-dihydropyrimidin-1(2H)-yl)methoxy)propane-1-sulfonamide] | 6.05 |
| CC(C)C(NS(=O)(=O)CCCOCn1ccc(=O)[nH]c1=O)c1cccc(OCC2CC2)c1 (stereo not drawn) [Example 31, N-(1-(3-(cyclopropylmethoxy)phenyl)-2-methylpropyl)-3-((2,4-dioxo-3,4-dihydropyrimidin-1(2H)-yl)methoxy)propane-1-sulfonamide] | 6.48 |
| CC(NS(=O)(=O)CCCOCn1ccc(=O)[nH]c1=O)c1cccc(OC2CCCC2)c1 (stereo not drawn) [Example 32, N-(1-(3-(cyclopentyloxy)phenyl)ethyl)-3-((2,4-dioxo-3,4-dihydropyrimidin-1(2H)-yl)methoxy)propane-1-sulfonamide] | 6.85 |
| O=c1ccn(COCCCS(=O)(=O)NCc2cccc(OC3CC3)c2)c(=O)[nH]1 [Example 33, N-(3-cyclopropoxybenzyl)-3-((2,4-dioxo-3,4-dihydropyrimidin-1(2H)-yl)methoxy)propane-1-sulfonamide] | 5.95 |
| O=c1ccn(COCCCS(=O)(=O)N[C@@H](c2ccc(F)c(OCC3CC3)c2)c2cccs2)c(=O)[nH]1 [Example 38, (S)—N-((3-(cyclopropylmethoxy)-4-fluorophenyl)(thiophen-2-yl)methyl)-3-((2,4-dioxo-3,4-dihydropyrimidin-1(2H)-yl)methoxy)propane-1-sulfonamide] | 7.52 |
| O=c1ccn(COCCCS(=O)(=O)N[C@@H](c2ccc(F)c(OCC3CC3)c2)C2CC2)c(=O)[nH]1 [Example 40, (R)—N-(cyclopropyl (3-(cyclopropylmethoxy)-4-fluorophenyl)methyl)-3-((2,4-dioxo-3,4-dihydropyrimidin-1(2H)-yl)methoxy)propane-1-sulfonamide] | 7.00 |
| O=c1ccn(COCCCS(=O)(=O)N[C@@H](c2cccc(OC3CCCC3)c2)C2CC2)c(=O)[nH]1 [Example 42, (R)—N-((3-(cyclopentyloxy)phenyl)(cyclopropyl)methyl)-3-((2,4-dioxo-3,4-dihydropyrimidin-1(2H)-yl)methoxy)propane-1-sulfonamide] | 6.48 |
| O=c1ccn(COCCCS(=O)(=O)NCc2cccc(OC3CCOCC3)c2)c(=O)[nH]1 [Example 46, 3-((2,4-dioxo-3,4-dihydropyrimidin-1(2H)-yl)methoxy)-N-(3-(tetrahydro-2H-pyran-4-yloxy)benzyl)propane-1-sulfonamide] | 5.63 |
| C[C@@H](NS(=O)(=O)CCCOCn1ccc(=O)[nH]c1=O)c1cccc(OC(F)(F)C(F)F)c1 [Example 51, (R)-3-((2,4-dioxo-3,4-dihydropyrimidin-1(2H)-yl)methoxy)-N-(1-(3-(1,1,2,2-tetrafluoroethoxy)phenyl)ethyl)propane-1-sulfonamide] | 6.08 |
| C[C@@H](NS(=O)(=O)CCCOCn1ccc(=O)[nH]c1=O)c1cccc(OCC(F)(F)F)c1 [Example 53, (R)-3-((2,4-dioxo-3,4-dihydropyrimidin-1(2H)-yl)methoxy)-N-(1-(3-(2,2,2-trifluoroethoxy)phenyl)ethyl)propane-1-sulfonamide] | 6.64 |

The remaining molecules from weak to strong by pIC50, led by results:

| pIC50 | SMILES |
| --- | --- |
| 5.70 | O=c1ccn(COCCCS(=O)(=O)NCc2cccc(OC3CCCCC3)c2)c(=O)[nH]1 [Example 45, N-(3-(cyclohexyloxy)benzyl)-3-((2,4-dioxo-3,4-dihydropyrimidin-1(2H)-yl)methoxy)propane-1-sulfonamide] |
| 5.81 | CC(C)[C@H](NS(=O)(=O)CCCOCn1ccc(=O)[nH]c1=O)c1ccc(F)c(OCC2CC2)c1 [Example 35, (S)—N-(1-(3-(cyclopropylmethoxy)-4-fluorophenyl)-2-methylpropyl)-3-((2,4-dioxo-3,4-dihydropyrimidin-1(2H)-yl)methoxy)propane-1-sulfonamide] |
| 6.03 | C[C@@H](NS(=O)(=O)CCCOCn1ccc(=O)[nH]c1=O)c1cccc(O[C@H]2CCOC2)c1 [Example 49, 3-((2,4-dioxo-3,4-dihydropyrimidin-1(2H)-yl)methoxy)-N—((R)-1-(3-((S)-tetrahydrofuran-3-yloxy)phenyl)ethyl)propane-1-sulfonamide] |
| 6.29 | C[C@@H](NS(=O)(=O)CCCOCn1ccc(=O)[nH]c1=O)c1cccc(OCC(C)(C)C)c1 [Example 52, (R)-3-((2,4-dioxo-3,4-dihydropyrimidin-1(2H)-yl)methoxy)-N-(1-(3-(neopentyloxy)phenyl)ethyl)propane-1-sulfonamide] |
| 6.44 | O=c1ccn(COCCCS(=O)(=O)NC(c2cccc(OCC3CC3)c2)C2CC2)c(=O)[nH]1 (stereo not drawn) [Example 30, N-(cyclopropyl(3-(cyclopropylmethoxy)phenyl)methyl)-3-((2,4-dioxo-3,4-dihydropyrimidin-1(2H)-yl)methoxy)propane-1-sulfonamide] |
| 6.55 | O=c1ccn(COCCCS(=O)(=O)NC2(c3cccc(OCC4CC4)c3)CCCC2)c(=O)[nH]1 [Example 39, N-(1-(3-(cyclopropylmethoxy)phenyl)cyclopentyl)-3-((2,4-dioxo-3,4-dihydropyrimidin-1(2H)-yl)methoxy)propane-1-sulfonamide] |
| 6.64 | C[C@@H](NS(=O)(=O)CCCOCn1ccc(=O)[nH]c1=O)c1ccc(F)c(OCC(F)(F)F)c1 [Example 54, (R)-3-((2,4-dioxo-3,4-dihydropyrimidin-1(2H)-yl)methoxy)-N-(1-(4-fluoro-3-(2,2,2-trifluoroethoxy)phenyl)ethyl)propane-1-sulfonamide] |
| 6.68 | C[C@@H](NS(=O)(=O)CCCOCn1ccc(=O)[nH]c1=O)c1cccc(OC2CCOCC2)c1 [Example 47, (R)-3-((2,4-dioxo-3,4-dihydropyrimidin-1(2H)-yl)methoxy)-N-(1-(3-(tetrahydro-2H-pyran-4-yloxy)phenyl)ethyl)propane-1-sulfonamide] |
| 6.80 | O=c1ccn(COCCCS(=O)(=O)NCc2ccc(F)c(OC3CCCC3)c2)c(=O)[nH]1 [Example 44, N-(3-(cyclopentyloxy)-4-fluorobenzyl)-3-((2,4-dioxo-3,4-dihydropyrimidin-1(2H)-yl)methoxy)propane-1-sulfonamide] |
| 6.82 | CC(NS(=O)(=O)CCCOCn1ccc(=O)[nH]c1=O)c1ccc(F)c(OCC2CC2)c1 (stereo not drawn) [Example 36, N-(1-(3-(cyclopropylmethoxy)-4-fluorophenyl)ethyl)-3-((2,4-dioxo-3,4-dihydropyrimidin-1(2H)-yl)methoxy)propane-1-sulfonamide] |
| 6.85 | C[C@@H](NS(=O)(=O)CCCOCn1ccc(=O)[nH]c1=O)c1ccc(F)c(OC2CCOCC2)c1 [Example 48, (R)-3-((2,4-dioxo-3,4-dihydropyrimidin-1(2H)-yl)methoxy)-N-(1-(4-fluoro-3-(tetrahydro-2H-pyran-4-yloxy)phenyl)ethyl)propane-1-sulfonamide] |
| 7.00 | O=c1ccn(COCCCS(=O)(=O)N[C@H](c2ccc(F)cc2)c2ccc(F)c(OCC3CC3)c2)c(=O)[nH]1 [Example 37, (R)—N-((3-(cyclopropylmethoxy)-4-fluorophenyl)(4-fluorophenyl)methyl)-3-((2,4-dioxo-3,4-dihydropyrimidin-1(2H)-yl)methoxy)propane-1-sulfonamide] |
| 7.05 | CC[C@@H](NS(=O)(=O)CCCOCn1ccc(=O)[nH]c1=O)c1cccc(OC2CC2)c1 [Example 43, (R)—N-(1-(3-cyclopropoxyphenyl)propyl)-3-((2,4-dioxo-3,4-dihydropyrimidin-1(2H)-yl)methoxy)propane-1-sulfonamide] |
| 7.40 | CC[C@@H](NS(=O)(=O)CCCOCn1ccc(=O)[nH]c1=O)c1cccc(OC2CCCC2)c1 [Example 41, (R)—N-(1-(3-(cyclopentyloxy)phenyl)propyl)-3-((2,4-dioxo-3,4-dihydropyrimidin-1(2H)-yl)methoxy)propane-1-sulfonamide] |
| 7.52 | CCC(NS(=O)(=O)CCCOCn1ccc(=O)[nH]c1=O)c1ccc(F)c(OCC2CC2)c1 (stereo not drawn) [Example 34, N-(1-(3-(cyclopropylmethoxy)-4-fluorophenyl)propyl)-3-((2,4-dioxo-3,4-dihydropyrimidin-1(2H)-yl)methoxy)propane-1-sulfonamide] |
